Read-outs that look alike come from different tables or passages of the source.
Legend:
[1] = test system: CD25-positive leukemia and lymphoma cell lines, SU-DHL-1, HDLM-2, EoL-1, L-540, and Karpas 299; experiment: In vitro cytotoxicity, range over the five cell lines; format: cell-based; details: read-out: IC50 concentrations (range across assays)
Description: (§1) The CD25-positive leukemia and lymphoma cell lines, SU-DHL-1, HDLM-2, EoL-1, L-540, and Karpas 299, were obtained from the ATCC and DSMZ cell banks, or were tested at Crown Bioscience, Inc. The cells were maintained in RPMI-1640 medium (Cellgro) supplemented with 10 or 20% fetal bovine serum (Invitrogen) and Glutamax (Invitrogen). 24 h prior to plating, cells were passaged to ensure log-phase growth. On the day of plating, 5000 cells/well were seeded onto 96-well plates in 100 μL normal growth medium supplemented with 10 IU penicillin and 10 μg/mL streptomycin (Cellgro). Cells were treated at various concentrations with 20 μL of diluted analytes, and the plates were incubated at 37° C. in an atmosphere of 5% CO2. After 5 d, 100 μL/well of Cell Titer-Glo reagent (Promega) was added, and luminescence was measured using a Molecular Devices SpectraMax M5 plate reader. GraphPad Prism software was used for data analysis.

Karpas 299 xenograft = Karpas 299 xenograft study; format: in vivo, Female CB17.SCID mice; details: 10 mg/kg intravenously, single dose or qwk×4; at 28 days; subcutaneous Karpas 299 tumors, FIG. 11
Description: Female CB17.SCID mice (6/group) were inoculated subcutaneously with 5×10^6 Karpas 299 cells. Treatment began when the tumors reached an average of 205 mm^3, at which time the animals were dosed intravenously with vehicle alone or the anti-CD25 HIPS-4AP-maytansine conjugate (10 mg/kg). One group received a single dose of the anti-CD25 HIPS-4AP-maytansine conjugate, while another group was dosed once per week for a total of four doses (qwk×4). The animals were monitored twice weekly for body weight and tumor size. Animals were euthanized when tumors reached 2000 mm^3.

SU-DHL-1 cells = experiment: In vitro cytotoxicity (Cell Titer-Glo, 5 d); format: cell-based; details: SU-DHL-1 cell line, 5 d incubation, FIG. 6
Description: as §1

L-540 cells = experiment: In vitro cytotoxicity (Cell Titer-Glo, 5 d); format: cell-based; details: L-540 cell line, 5 d incubation, FIG. 9
Description: as §1

Karpas 299 cells = experiment: In vitro cytotoxicity (Cell Titer-Glo, 5 d); format: cell-based; details: Karpas 299 cell line, 5 d incubation, FIG. 10
Description: as §1

EoL-1 cells = experiment: In vitro cytotoxicity (Cell Titer-Glo, 5 d); format: cell-based; details: EoL-1 cell line, 5 d incubation, FIG. 8
Description: as §1

HDLM-2 cells = experiment: In vitro cytotoxicity (Cell Titer-Glo, 5 d); format: cell-based; details: HDLM-2 cell line, 5 d incubation, FIG. 7
Description: as §1

Compound | IC50 ([1]; 120 h) | IC50 ([1]; range over all five tested cell lines, 5 d incubation) | detectable tumors at median time to endpoint of vehicle control groups (Karpas 299 xenograft) | IC50 (SU-DHL-1 cells) | IC50 (L-540 cells) | IC50 (Karpas 299 cells) | IC50 (EoL-1 cells) | IC50 (HDLM-2 cells)
COc1cc2cc(c1Cl)N(C)C(=O)C[C@H](OC(=O)[C@H](C)N(C)C(C)=O)[C@]1(C)O[C@H]1[C@H](C)[C@@H]1C[C@@](O)(NC(=O)O1)[C@H](OC)/C=C/C=C(\C)C2 [free maytansine, maytansine] | 0.03 to 0.19 nM | – | – | – | – | – | – | –
anti-CD25 HIPS-4AP-maytansine conjugate: C-terminally aldehyde-tagged anti-CD25 antibody (daclizumab) conjugated to a maytansine payload attached to a HIPS-4AP linker; DAR 1.75-1.84 | – | 0.06 to 0.49 nM | none of the animals that had been dosed with the anti-CD25 HIPS-4AP-maytansine conjugate had detectable tumors | 0.24 nM | 0.43 nM | 0.49 nM | 0.07 nM | 0.06 nM
